{"source": "the NIST ThermoML archive (doi:10.1021/acs.jced.9b00703)", "key": {"[1]": {"experiment": "Molar enthalpy of transition or fusion", "conditions": "Crystal; DSC"}, "[2]": {"conditions": "Crystal; DSC"}}, "note": "± gives the expanded uncertainty stated by the source."}
{"smiles": "OC[C@H]1O[C@@H](Oc2ccc(O)cc2)[C@H](O)[C@@H](O)[C@@H]1O", "note": "[β-arbutin]", "values": [{"measurement": "Molar enthalpy of transition or fusion", "setting": "[1]", "result": "10.7 ± 0.382", "unit": "kcal/mol"}, {"measurement": "Triple point temperature", "setting": "[2]", "result": "475.25 ± 0.87", "unit": "K"}]}
